From US11420958B2, “Aryl and heteroaryl substituted indole compounds” (BRISTOL-MYERS SQUIBB COMPANY, priority 2017, dated 2022)

Legend:
Assay type in all cases: cell-based
human TLR7 = human TLR7 (Homo sapiens (Human), UniProt Q9NYK1); experiment: TLR7 inhibition reporter assay (HEK-Blue, SEAP); conditions: HEK-Blue cells overexpressing human TLR7, gardiquimod 7.5 μM stimulation
Method in brief: (§1)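 HEK-Blue cells expressing human TLR7, TLR8 or TLR9 with NF-κB/AP-1-driven SEAP reporter; compounds 0.05 nM–50 μM, 30 min pre-treatment at room temperature. Stimulated with gardiquimod 7.5 μM (TLR7), R848 15.9 μM (TLR8) or ODN2006 5 nM (TLR9), 22 h at 37 °C; % inhibition of SEAP signal relative to agonist+DMSO and known-inhibitor wells.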

human TLR9 = human TLR9 (Homo sapiens (Human), UniProt Q9NR96); experiment: TLR9 inhibition reporter assay (HEK-Blue, SEAP); conditions: HEK-Blue cells overexpressing human TLR9, ODN2006 5 nM stimulation
Chain of human TLR9 (Q9NR96 26-1032): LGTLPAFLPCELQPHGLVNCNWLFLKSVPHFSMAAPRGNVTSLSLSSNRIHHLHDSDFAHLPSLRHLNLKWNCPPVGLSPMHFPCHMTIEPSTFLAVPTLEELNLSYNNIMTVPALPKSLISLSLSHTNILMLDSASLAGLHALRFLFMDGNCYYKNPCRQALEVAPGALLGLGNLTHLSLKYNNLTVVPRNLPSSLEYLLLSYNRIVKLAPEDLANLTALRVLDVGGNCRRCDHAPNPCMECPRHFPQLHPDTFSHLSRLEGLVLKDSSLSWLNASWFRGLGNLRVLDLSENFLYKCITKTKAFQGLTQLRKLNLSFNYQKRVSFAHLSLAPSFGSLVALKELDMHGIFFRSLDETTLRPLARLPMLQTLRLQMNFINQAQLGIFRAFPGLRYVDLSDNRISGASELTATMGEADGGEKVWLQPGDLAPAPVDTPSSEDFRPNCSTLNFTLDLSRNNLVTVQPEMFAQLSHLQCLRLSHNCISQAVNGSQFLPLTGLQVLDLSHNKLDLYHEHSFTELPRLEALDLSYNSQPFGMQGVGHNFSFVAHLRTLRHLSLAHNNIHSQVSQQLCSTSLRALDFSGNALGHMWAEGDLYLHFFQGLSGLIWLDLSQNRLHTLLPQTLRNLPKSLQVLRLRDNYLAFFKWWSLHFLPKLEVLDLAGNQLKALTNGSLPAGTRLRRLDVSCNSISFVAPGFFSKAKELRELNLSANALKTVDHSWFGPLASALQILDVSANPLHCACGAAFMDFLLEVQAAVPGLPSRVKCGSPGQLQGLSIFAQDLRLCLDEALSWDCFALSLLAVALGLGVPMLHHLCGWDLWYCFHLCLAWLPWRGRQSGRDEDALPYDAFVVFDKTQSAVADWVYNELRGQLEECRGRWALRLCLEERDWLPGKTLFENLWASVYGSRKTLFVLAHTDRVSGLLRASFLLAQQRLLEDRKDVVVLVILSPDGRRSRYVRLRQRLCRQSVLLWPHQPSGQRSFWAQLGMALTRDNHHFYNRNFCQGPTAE
Method in brief: as §1

human TLR8 = human TLR8 (Homo sapiens (Human), UniProt Q9NR97); experiment: TLR8 inhibition reporter assay (HEK-Blue, SEAP); conditions: HEK-Blue cells overexpressing human TLR8, R848 15.9 μM stimulation
Chain of human TLR8 (Q9NR97 27-1041): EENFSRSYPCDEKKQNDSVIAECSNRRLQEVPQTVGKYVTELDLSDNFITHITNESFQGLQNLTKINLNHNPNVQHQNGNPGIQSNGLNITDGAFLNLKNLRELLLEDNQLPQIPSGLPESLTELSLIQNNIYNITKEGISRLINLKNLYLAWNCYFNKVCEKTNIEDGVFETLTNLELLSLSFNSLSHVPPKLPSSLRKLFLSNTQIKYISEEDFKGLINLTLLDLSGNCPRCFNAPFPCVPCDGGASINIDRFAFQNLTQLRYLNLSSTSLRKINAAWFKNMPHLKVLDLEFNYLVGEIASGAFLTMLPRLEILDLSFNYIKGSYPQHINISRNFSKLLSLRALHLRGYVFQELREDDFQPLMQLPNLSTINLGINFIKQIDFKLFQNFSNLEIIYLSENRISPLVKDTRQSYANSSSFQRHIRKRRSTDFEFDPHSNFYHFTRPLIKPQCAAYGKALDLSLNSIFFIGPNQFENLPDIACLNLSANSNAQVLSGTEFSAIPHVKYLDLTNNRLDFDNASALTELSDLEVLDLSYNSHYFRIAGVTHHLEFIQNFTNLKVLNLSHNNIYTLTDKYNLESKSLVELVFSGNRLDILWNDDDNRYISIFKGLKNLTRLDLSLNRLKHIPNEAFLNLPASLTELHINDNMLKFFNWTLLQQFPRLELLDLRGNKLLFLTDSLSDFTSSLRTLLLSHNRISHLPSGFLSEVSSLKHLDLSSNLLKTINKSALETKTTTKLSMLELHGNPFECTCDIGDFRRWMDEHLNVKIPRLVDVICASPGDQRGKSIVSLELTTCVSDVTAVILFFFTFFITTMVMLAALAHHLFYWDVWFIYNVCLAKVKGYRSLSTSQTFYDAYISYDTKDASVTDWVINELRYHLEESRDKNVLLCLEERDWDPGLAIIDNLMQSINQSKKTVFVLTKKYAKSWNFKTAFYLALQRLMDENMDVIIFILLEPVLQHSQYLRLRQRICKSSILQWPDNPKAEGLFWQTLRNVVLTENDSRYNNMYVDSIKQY
Method in brief: as §1

Chain of human TLR7 (Q9NYK1 27-1049): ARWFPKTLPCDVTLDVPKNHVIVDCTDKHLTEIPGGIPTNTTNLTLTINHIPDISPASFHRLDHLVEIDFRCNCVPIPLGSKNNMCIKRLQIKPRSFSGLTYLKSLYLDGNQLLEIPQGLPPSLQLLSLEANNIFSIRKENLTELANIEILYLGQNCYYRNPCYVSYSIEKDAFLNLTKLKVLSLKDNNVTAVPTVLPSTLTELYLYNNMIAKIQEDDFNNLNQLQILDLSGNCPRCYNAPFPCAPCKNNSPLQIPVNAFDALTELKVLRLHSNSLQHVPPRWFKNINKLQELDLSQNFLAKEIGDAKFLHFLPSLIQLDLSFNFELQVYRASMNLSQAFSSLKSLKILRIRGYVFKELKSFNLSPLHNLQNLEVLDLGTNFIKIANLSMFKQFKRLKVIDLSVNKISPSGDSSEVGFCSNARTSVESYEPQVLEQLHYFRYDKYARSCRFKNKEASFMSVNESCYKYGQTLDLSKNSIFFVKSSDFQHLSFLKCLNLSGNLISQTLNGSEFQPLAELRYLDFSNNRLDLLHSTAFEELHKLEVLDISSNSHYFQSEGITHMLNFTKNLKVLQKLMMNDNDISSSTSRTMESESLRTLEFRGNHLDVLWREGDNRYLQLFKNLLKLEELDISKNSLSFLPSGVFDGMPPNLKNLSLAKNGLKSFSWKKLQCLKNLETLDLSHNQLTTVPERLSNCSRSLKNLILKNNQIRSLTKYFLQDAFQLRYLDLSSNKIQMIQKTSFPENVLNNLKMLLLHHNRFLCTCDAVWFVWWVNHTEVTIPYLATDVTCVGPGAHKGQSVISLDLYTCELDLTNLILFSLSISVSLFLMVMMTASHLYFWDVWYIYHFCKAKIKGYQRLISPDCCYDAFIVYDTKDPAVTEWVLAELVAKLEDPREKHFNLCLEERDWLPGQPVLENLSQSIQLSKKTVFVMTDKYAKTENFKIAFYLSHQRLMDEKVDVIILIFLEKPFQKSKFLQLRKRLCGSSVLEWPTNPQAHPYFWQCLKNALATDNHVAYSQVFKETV

Row | IC50 (human TLR7) | IC50 (human TLR9) | IC50 (human TLR8) | SMILES
1 | 70 nM | 4100 nM | 6.7 nM | Cc1cc(-c2[nH]c3ccc(-c4nnc(C5CCN(C(C)C)CC5)[nH]4)cc3c2C(C)C)ccn1 [Example 187, 3-isopropyl-5-(5-(1-isopropylpiperidin-4-yl)-4H-1,2,4-triazol-3-yl)-2-(2-methylpyridin-4-yl)-1H-indole]
2 | 258 nM | 48500 nM | 9.1 nM | Cc1cc(-c2[nH]c3ccc(-c4nnc(NC(=O)CN(C)C)o4)cc3c2C(C)C)ccn1 [Example 190, 2-(dimethylamino)-N-(5-(3-isopropyl-2-(2-methylpyridin-4-yl)-1H-indol-5-yl)-1,3,4-oxadiazol-2-yl)acetamide]
3 | 113 nM | 3410 nM | 13 nM | Cc1cc(-c2[nH]c3ccc(-c4nc(C(=O)NC5CCN(C(C)C)CC5)c(C)o4)cc3c2C(C)C)ccn1 [Example 191, 2-(3-isopropyl-2-(2-methylpyridin-4-yl)-1H-indol-5-yl)-N-(1-isopropylpiperidin-4-yl)-5-methyloxazole-4-carboxamide]
4 | 1000 nM | 2880 nM | 213 nM | Cc1cc(-c2[nH]c3ccc(-c4nc(C)cs4)cc3c2C(C)C)ccn1 [Example 192, 2-(3-isopropyl-2-(2-methylpyridin-4-yl)-1H-indol-5-yl)-4-methylthiazole]
5 | 264 nM | > 50000 nM | 71 nM | Cc1cc(-c2[nH]c3ccc(-c4cnc(N)nc4)cc3c2C(C)C)ccn1 [Example 193, 5-(3-isopropyl-2-(2-methylpyridin-4-yl)-1H-indol-5-yl)pyrimidin-2-amine]
6 | 37 nM | 1100 nM | 4.9 nM | Cc1cc(-c2[nH]c3ccc(-c4cnc(C5CCNCC5)s4)cc3c2C(C)C)ccn1 [Example 199, 5-(3-isopropyl-2-(2-methylpyridin-4-yl)-1H-indol-5-yl)-2-(piperidin-4-yl)thiazole]
7 | 10 nM | 1840 nM | 2.9 nM | Cc1cc(-c2[nH]c3ccc(-c4sc(C5CCNCC5)nc4C)cc3c2C(C)C)ccn1 [Example 201, 5-(3-isopropyl-2-(2-methylpyridin-4-yl)-1H-indol-5-yl)-4-methyl-2-(piperidin-4-yl)thiazole]
8 | 11 nM | 495 nM | 1.3 nM | CNCCNc1ccc(-c2ccc3[nH]c(-c4ccnc(C)c4)c(C(C)C)c3c2)cn1 [Example 202, N1-(5-(3-isopropyl-2-(2-methylpyridin-4-yl)-1H-indol-5-yl)pyridin-2-yl)-N2-methylethane-1,2-diamine]
9 | 32 nM | 243 nM | 5.5 nM | Cc1cc(-c2[nH]c3ccc(-c4nnc(C5CCCN(C(C)C)C5)[nH]4)cc3c2C(C)C)ccn1 (stereo not drawn) [Example 205, 3-isopropyl-5-(5-(1-isopropylpiperidin-3-yl)-4H-1,2,4-triazol-3-yl)-2-(2-methylpyridin-4-yl)-1H-indole]
10 | 4450 nM | > 50000 nM | 11 nM | CC(C)c1c(-c2ccnc3[nH]ncc23)[nH]c2ccc(-c3nc4n(n3)CCNC4)cc12 [Example 206, 2-(3-isopropyl-2-(1H-pyrazolo[3,4-b]pyridin-4-yl)-1H-indol-5-yl)-5,6,7,8-tetrahydro-[1,2,4]triazolo[1,5-a]pyrazine]
11 | 169 nM | 828 nM | 67 nM | Cc1cc(-c2[nH]c3ccc(-c4ccc(NC(=O)[C@@H]5CCNC5)nc4)cc3c2C(C)C)ccn1 [Example 209, (R)—N-(5-(3-isopropyl-2-(2-methylpyridin-4-yl)-1H-indol-5-yl)pyridin-2-yl)pyrrolidine-3-carboxamide]
12 | 1060 nM | 12100 nM | 109 nM | Cc1oc(-c2ccc3[nH]c(-c4ccnc5[nH]ncc45)c(C(C)C)c3c2)nc1C(=O)NCC1CCNC1 (stereo not drawn) [Example 212, 2-(3-isopropyl-2-(1H-pyrazolo[3,4-b]pyridin-4-yl)-1H-indol-5-yl)-5-methyl-N-(pyrrolidin-3-ylmethyl)oxazole-4-carboxamide]

The next lines start with the compound.

Row | SMILES | IC50 (human TLR7) | IC50 (human TLR9) | IC50 (human TLR8)
13 | Cc1cc(-c2[nH]c3ccc(-c4nnc(C5CCN(CC(=O)N(C)C)CC5)[nH]4)cc3c2C(C)C)ccn1 [Example 185, 2-(4-(5-(3-isopropyl-2-(2-methylpyridin-4-yl)-1H-indol-5-yl)-4H-1,2,4-triazol-3-yl)piperidin-1-yl)-N,N-dimethylacetamide] | 84 nM | 7590 nM | 3.3 nM
14 | Cc1cc(-c2[nH]c3ccc(-c4nnc(C5CCN(C(=O)CN(C)C)CC5)[nH]4)cc3c2C(C)C)ccn1 [Example 186, 2-(dimethylamino)-1-(4-(5-(3-isopropyl-2-(2-methylpyridin-4-yl)-1H-indol-5-yl)-4H-1,2,4-triazol-3-yl)piperidin-1-yl)ethan-1-one] | 28 nM | 1500 nM | 16 nM
15 | Cc1cc(-c2[nH]c3ccc(-c4nnc(C5CCCN(C(C)C)C5)[nH]4)cc3c2C(C)C)ccn1 (stereo not drawn) [Example 188, 3-isopropyl-5-(5-(1-isopropylpiperidin-3-yl)-4H-1,2,4-triazol-3-yl)-2-(2-methylpyridin-4-yl)-1H-indole] | 28 nM | 328 nM | 3 nM
16 | Cc1cc(-c2[nH]c3ccc(-c4nc(C5CCNCC5)c[nH]4)cc3c2C(C)C)ccn1 [Example 189, 3-isopropyl-2-(2-methylpyridin-4-yl)-5-(4-(piperidin-4-yl)-1H-imidazol-2-yl)-1H-indole] | 175 nM | 921 nM | 43 nM
17 | Cc1cc(-c2[nH]c3ccc(-c4nc(C(=O)NCC5CCNC5)c(C)o4)cc3c2C(C)C)ccn1 (stereo not drawn) [Example 194, 2-(3-isopropyl-2-(2-methylpyridin-4-yl)-1H-indol-5-yl)-5-methyl-N-(pyrrolidin-3-ylmethyl)oxazole-4-carboxamide] | 112 nM | 11700 nM | 86 nM
18 | CC(C)c1c(-c2ccnc3[nH]ncc23)[nH]c2ccc(-c3nnc(C(=O)NCCN(C)C)s3)cc12 [Example 195, N-(2-(dimethylamino)ethyl)-5-(3-isopropyl-2-(1H-pyrazolo[3,4-b]pyridin-4-yl)-1H-indol-5-yl)-1,3,4-thiadiazole-2-carboxamide] | 18 nM | 668 nM | 2.5 nM
19 | Cc1cc(-c2[nH]c3ccc(-c4nnc(C5CCNCC5)[nH]4)cc3c2C(C)C)ccn1 [Example 196, 3-isopropyl-2-(2-methylpyridin-4-yl)-5-(5-(piperidin-4-yl)-4H-1,2,4-triazol-3-yl)-1H-indole] | 277 nM | 6970 nM | 83 nM
20 | Cc1cc(-c2[nH]c3ccc(-c4nc(C(=O)NCC5CCNC5)co4)cc3c2C(C)C)ccn1 (stereo not drawn) [Example 197, 2-(3-isopropyl-2-(2-methylpyridin-4-yl)-1H-indol-5-yl)-N-(pyrrolidin-3-ylmethyl)oxazole-4-carboxamide] | 440 nM | 13000 nM | 61 nM
21 | Cc1cc(-c2[nH]c3ccc(-c4ccc(NC(=O)CN(C)C)nc4)cc3c2C(C)C)ccn1 [Example 198, 2-(dimethylamino)-N-(5-(3-isopropyl-2-(2-methylpyridin-4-yl)-1H-indol-5-yl)pyridin-2-yl)acetamide] | 26 nM | 654 nM | 3 nM
22 | Cc1cc(-c2[nH]c3ccc(-c4ccnc(N)c4)cc3c2C(C)C)ccn1 [Example 200, 4-(3-isopropyl-2-(2-methylpyridin-4-yl)-1H-indol-5-yl)pyridin-2-amine] | 9.6 nM | 727 nM | 9.7 nM
23 | CC(C)c1c(-c2ccnc3[nH]ncc23)[nH]c2ccc(-c3nnc(C(=O)NC4CCN(C(C)C)CC4)s3)cc12 [Example 203, 5-(3-isopropyl-2-(1H-pyrazolo[3,4-b]pyridin-4-yl)-1H-indol-5-yl)-N-(1-isopropylpiperidin-4-yl)-1,3,4-thiadiazole-2-carboxamide] | 56 nM | 926 nM | 7.8 nM
24 | Cc1cc(-c2[nH]c3ccc(-c4nnc(C5CCCN(C(C)C)C5)[nH]4)cc3c2C(C)C)ccn1 (stereo not drawn) [Example 204, 3-isopropyl-5-(5-(1-isopropylpiperidin-3-yl)-4H-1,2,4-triazol-3-yl)-2-(2-methylpyridin-4-yl)-1H-indole] | 67 nM | 218 nM | 5.7 nM
25 | Cc1cc(-c2[nH]c3ccc(-c4ccc(NC(=O)[C@H]5CCNC5)nc4)cc3c2C(C)C)ccn1 [Example 207, (S)—N-(5-(3-isopropyl-2-(2-methylpyridin-4-yl)-1H-indol-5-yl)pyridin-2-yl)pyrrolidine-3-carboxamide] | 83 nM | 1650 nM | 14 nM
26 | CC(C)c1c(-c2ccnc3[nH]ncc23)[nH]c2ccc(-c3cc(N4CCC(N)CC4)ncn3)cc12 [Example 208, 1-(6-(3-isopropyl-2-(1H-pyrazolo[3,4-b]pyridin-4-yl)-1H-indol-5-yl)pyrimidin-4-yl)piperidin-4-amine] | 139 nM | 1220 nM | 9.3 nM
27 | CC(C)c1c(-c2ccnc3[nH]ncc23)[nH]c2ccc(-c3nc4n(n3)CCN(C3CCN(C(C)C)CC3)C4)cc12 [Example 211, 2-(3-isopropyl-2-(1H-pyrazolo[3,4-b]pyridin-4-yl)-1H-indol-5-yl)-7-(1-isopropylpiperidin-4-yl)-5,6,7,8-tetrahydro-[1,2,4]triazolo[1,5-a]pyrazine] | 216 nM | 1830 nM | 9.9 nM
28 | Cc1cc(-c2[nH]c3ccc(-c4nnc(C5CN6CCC5CC6)o4)cc3c2C(C)C)ccn1 (stereo not drawn) [Example 213, 2-(3-isopropyl-2-(2-methylpyridin-4-yl)-1H-indol-5-yl)-5-(quinuclidin-3-yl)-1,3,4-oxadiazole] | 47 nM | 655 nM | 3.3 nM
